Measured values as given in ChEMBL document CHEMBL5252653, “Design, Synthesis, and Bioevaluation of Dexmedetomidine Prodrug” (ACS Med Chem Lett, 2023).

Key:
Rattus norvegicus [1] = experiment: Sedative activity in Sprague-Dawley rat assessed as duration time at 2 times of EC50 administered as bolus dose; format: functional
Rattus norvegicus [2] = species on record: Rattus norvegicus; experiment: Sedative activity in Sprague-Dawley rat assessed as onset time at 2 times of EC50; format: functional; conditions: dose 10-110 µg/ml; route iv
[3] = Cardiotoxicity in Sprague-Dawley rat assessed as decrease in blood pressure at 20 to 80 microg/ml, iv administered as bolus dose by ECG analysis; format: toxicity, organism-based; parameters: scale not given: the % may be the effect or the level left; conditions: in vivo, at 20 to 80 µg/mL, dose 20-80 µg/ml
Rattus norvegicus [4] = experiment: Sedative activity in Sprague-Dawley rat at 10 to 110 microg/ml, iv administered as bolus dose by dixon analysis; format: functional
[5] = Toxicity in Sprague-Dawley rat assessed as survival rate at 2 times of EC50; conditions: in vivo, read-out: Activity
[6] = Prodrug conversion in Sprague-Dawley rat assessed as dexmedetomidine release at 2 times of ED50; format: ADME; conditions: in vivo
[7] = Cardiotoxicity in Sprague-Dawley rat assessed as decrease in blood pressure at 20 to 80 microg/ml, iv administered as bolus dose measured for 45 mins by ECG analysis; format: toxicity, organism-based; parameters: scale not given: the % may be the effect or the level left; conditions: in vivo, 0.75 h, at 20 to 80 µg/mL, dose 20-80 µg/ml
[8] = Prodrug conversion in Sprague-Dawley rat plasma assessed as dexmedetomidine release measured at 5 mins by HPLC analysis; format: ADME, cell-free
[9] = Cardiotoxicity in Sprague-Dawley rat assessed as reduction in heart rate at 20 to 80 microg/ml, iv administered as bolus dose by ECG analysis; format: toxicity, organism-based; conditions: in vivo, dose 20-80 µg/ml
[10] = Prodrug conversion in Sprague-Dawley rat plasma assessed as dexmedetomidine release measured at 30 mins by HPLC analysis; format: ADME, cell-free; conditions: 0.5 h
[11] = Prodrug conversion in Sprague-Dawley rat plasma assessed as dexmedetomidine release measured at 15 mins by HPLC analysis; format: ADME, cell-free; conditions: 0.25 h
[12] = Cardiotoxicity in Sprague-Dawley rat assessed as change in heart rate at 20 to 80 microg/ml, iv administered as bolus dose by ECG analysis; format: toxicity, organism-based; conditions: in vivo, at 20 to 80 µg/mL, dose 20-80 µg/ml
[13] = Cardiotoxicity in Sprague-Dawley rat assessed as bradycardia at 20 to 80 microg/ml, iv administered as bolus dose by ECG analysis; format: toxicity, organism-based; conditions: in vivo, at 20 to 80 µg/mL, dose 20-80 µg/ml
[14] = Prodrug conversion in Sprague-Dawley rat plasma assessed as dexmedetomidine release measured at 2 mins by HPLC analysis; format: ADME, cell-free

Row | Compound | Time (Rattus norvegicus [1]) [s] | Time (Rattus norvegicus [2]) [s] | Activity [3] [%] | ED50 (Rattus norvegicus [4]) [mg/kg] | survival [5] [%] | Drug metabolism [6] [µg/kg] | Activity [7] [%] | Drug metabolism [8] | Activity [9] | Drug metabolism [10] | Drug metabolism [11] | Activity [12] [%] | Activity [13] [%] | Drug metabolism [14]
1 | Cc1cccc([C@H](C)c2cncn2COP(=O)([O-])[O-])c1C.[Na+].[Na+] | 3966.6 | 206.5 | 15.15 | 0.0402 | 100 | 45.5 |  |  |  |  |  |  |  | 
2 | CCOC(=O)n1cnc([C@@H](C)c2cccc(C)c2C)c1.Cl | 1971.4 | 289.1 |  | 0.0213 | 100 | 27.61 |  |  |  |  |  |  |  | 
3 | CC(=O)OCn1cnc([C@@H](C)c2cccc(C)c2C)c1.Cl | 2483.6 | 252.4 |  | 0.0321 | 100 | 41.68 | 29.66 |  |  |  |  |  |  | 
4 | Cc1cccc([C@H](C)c2cn(COC(=O)C(C)C)cn2)c1C.Cl | 3798.6 | 63.9 |  | 0.0399 | 100 | 47.44 |  | Metabolite_Detected |  |  |  |  |  | 
5 | Cc1cccc([C@H](C)c2cn(C(=O)OCC(C)C)cn2)c1C.Cl | 2802.9 | 151.9 | 34.65 | 0.0359 | 100 | 42.7 |  |  | Toxic |  |  |  |  | 
6 | CCC(=O)OC(C)n1cnc([C@@H](C)c2cccc(C)c2C)c1.Cl (stereo partly specified) | 2295.6 | 159.8 |  | 0.035 | 100 | 41.58 | 32.17 |  | Toxic | Metabolite_Detected |  |  |  | 
7 | CCCOC(=O)n1cnc([C@@H](C)c2cccc(C)c2C)c1 | 2605.7 | 142.1 | 28.23 | 0.0255 | 100 | 31.7 |  |  |  |  |  |  |  | 
8 | CCOC(=O)COC(=O)OCn1cnc([C@@H](C)c2cccc(C)c2C)c1.Cl | 3177.7 | 68.2 |  | 0.0468 | 100 | 47.22 | 28.49 |  | Toxic |  |  |  |  | 
9 | CC(=O)OC(C)n1cnc([C@@H](C)c2cccc(C)c2C)c1.Cl (stereo partly specified) | 2274.1 | 117 | 14.67 | 0.0263 | 100 | 32.61 |  |  |  | Metabolite_Detected |  |  |  | 
10 | CCC(=O)OCn1cnc([C@@H](C)c2cccc(C)c2C)c1.Cl | 2325.8 | 184.4 | 34.92 | 0.0268 | 100 | 33.32 |  | Metabolite_Detected |  |  |  |  |  | 
11 | COC(=O)n1cnc([C@@H](C)c2cccc(C)c2C)c1.Cl | 2018.2 | 219.5 | 17.35 | 0.02 | 100 | 25.77 |  |  |  |  | Metabolite_Detected |  |  | 
12 | Cc1cccc([C@H](C)c2cn(COC(=O)C3CCC3)cn2)c1C.Cl | 2841.2 | 214.4 |  | 0.034 | 100 | 39.02 |  |  |  |  |  |  |  | 
13 | Cc1cccc([C@H](C)c2cn(COC(=O)C(C)(C)C)cn2)c1C.Cl | 3091.8 | 157.9 | 14.57 | 0.0551 | 100 | 62.94 |  |  | Toxic |  |  | -27.08 |  | 
14 | Cc1cccc([C@H](C)c2cn(COC(=O)c3ccccc3)cn2)c1C.Cl | 4457.7 | 204.1 |  | 0.0595 | 100 | 64.29 |  |  | Toxic | Metabolite_Detected |  |  |  | 
15 | Cc1cccc([C@H](C)c2cn(COC(=O)OC(C)C)cn2)c1C.Cl | 2458.7 | 305.2 |  | 0.0311 | 100 | 35.33 |  |  |  |  |  |  |  | 
16 | Cc1cccc([C@H](C)c2cn(C(=O)OC(C)C)cn2)c1C.Cl | 3984.1 | 239.3 | 22.4 | 0.0446 | 100 | 55.39 |  |  | Toxic |  | Metabolite_Detected | -22.88 | -22.88 | 
17 | CCCC(=O)OCn1cnc([C@@H](C)c2cccc(C)c2C)c1.Cl | 1941.9 | 265 | 20.07 | 0.0211 | 100 | 25.15 |  | Metabolite_Detected | Toxic |  |  | -29.92 |  | 
18 | COC(=O)OCn1cnc([C@@H](C)c2cccc(C)c2C)c1.Cl | 2017.2 | 259.6 | 16.35 | 0.0232 | 100 | 28.68 |  |  |  |  |  |  |  | 
19 | Cc1cccc([C@H](C)c2cn(COC(=O)C3CC3)cn2)c1C.Cl | 2410 | 195.2 |  | 0.0298 | 100 | 35.67 |  |  |  |  |  |  |  | 
20 | Cc1cccc([C@H](C)c2cn(COC(=O)OC3CC3)cn2)c1C.Cl | 2795.7 | 92.1 | 37.25 | 0.0232 | 100 | 26.53 |  | Metabolite_Detected |  |  |  |  |  | Metabolite_Detected
21 | CCOC(=O)OCn1cnc([C@@H](C)c2cccc(C)c2C)c1.Cl | 2887.7 | 122.5 |  | 0.0292 | 100 | 34.47 |  |  | Toxic |  |  |  | -24.88 | 
22 | Cc1cccc([C@H](C)c2cn(COC(=O)OC3CCC3)cn2)c1C.Cl | 3189.5 | 185 | 34.79 | 0.0268 | 100 | 29.48 |  | Metabolite_Detected | Toxic |  |  |  |  | Metabolite_Detected
23 | COC(=O)COC(=O)OCn1cnc([C@@H](C)c2cccc(C)c2C)c1.Cl | 3795.2 | 94.9 |  | 0.0487 | 100 | 50.93 | 31.3 |  | Toxic |  |  |  |  | 
24 | Cc1cccc([C@H](C)c2cnc[nH]2)c1C [DEXMEDETOMIDINE] | 3312 | 87.8 | 43.55 | 0.0168 | 100 | 28.38 |  |  |  |  |  | -33.58 | -41.07 | 
